# Test results as given in ChEMBL document CHEMBL5113530, “Butyrylation Meets Adipogenesis-Probed by a p300-Catalyzed Acylation-Specific Small Molecule Inhibitor: Implication in Anti-obesity Therapy” (J Med Chem, 2022).
# The source made the active and inactive calls. The calls are words filed in the database; no cut-off is given here.
# Key:
# [1] = test system: Histone acetyltransferase p300 (Homo sapiens), Q09472 [C1438A]; assay: Inhibition of His-tagged EP300 C1438A mutant catalytic domain catalyzed butyrylation (unknown origin) expressed in Escherichia coli BL21 (DE3) using Histone H3 as substrate at 25 uM preincubated with compound for 10 mins followed by butyryl-CoA addition and measured after 10 mins by Western blot analysis; conditions: time 20.0 min
# Sequence of Histone acetyltransferase p300 (Homo sapiens), Q09472 [C1438A] (Q09472 whole entry C1438A, the tested form may be a part): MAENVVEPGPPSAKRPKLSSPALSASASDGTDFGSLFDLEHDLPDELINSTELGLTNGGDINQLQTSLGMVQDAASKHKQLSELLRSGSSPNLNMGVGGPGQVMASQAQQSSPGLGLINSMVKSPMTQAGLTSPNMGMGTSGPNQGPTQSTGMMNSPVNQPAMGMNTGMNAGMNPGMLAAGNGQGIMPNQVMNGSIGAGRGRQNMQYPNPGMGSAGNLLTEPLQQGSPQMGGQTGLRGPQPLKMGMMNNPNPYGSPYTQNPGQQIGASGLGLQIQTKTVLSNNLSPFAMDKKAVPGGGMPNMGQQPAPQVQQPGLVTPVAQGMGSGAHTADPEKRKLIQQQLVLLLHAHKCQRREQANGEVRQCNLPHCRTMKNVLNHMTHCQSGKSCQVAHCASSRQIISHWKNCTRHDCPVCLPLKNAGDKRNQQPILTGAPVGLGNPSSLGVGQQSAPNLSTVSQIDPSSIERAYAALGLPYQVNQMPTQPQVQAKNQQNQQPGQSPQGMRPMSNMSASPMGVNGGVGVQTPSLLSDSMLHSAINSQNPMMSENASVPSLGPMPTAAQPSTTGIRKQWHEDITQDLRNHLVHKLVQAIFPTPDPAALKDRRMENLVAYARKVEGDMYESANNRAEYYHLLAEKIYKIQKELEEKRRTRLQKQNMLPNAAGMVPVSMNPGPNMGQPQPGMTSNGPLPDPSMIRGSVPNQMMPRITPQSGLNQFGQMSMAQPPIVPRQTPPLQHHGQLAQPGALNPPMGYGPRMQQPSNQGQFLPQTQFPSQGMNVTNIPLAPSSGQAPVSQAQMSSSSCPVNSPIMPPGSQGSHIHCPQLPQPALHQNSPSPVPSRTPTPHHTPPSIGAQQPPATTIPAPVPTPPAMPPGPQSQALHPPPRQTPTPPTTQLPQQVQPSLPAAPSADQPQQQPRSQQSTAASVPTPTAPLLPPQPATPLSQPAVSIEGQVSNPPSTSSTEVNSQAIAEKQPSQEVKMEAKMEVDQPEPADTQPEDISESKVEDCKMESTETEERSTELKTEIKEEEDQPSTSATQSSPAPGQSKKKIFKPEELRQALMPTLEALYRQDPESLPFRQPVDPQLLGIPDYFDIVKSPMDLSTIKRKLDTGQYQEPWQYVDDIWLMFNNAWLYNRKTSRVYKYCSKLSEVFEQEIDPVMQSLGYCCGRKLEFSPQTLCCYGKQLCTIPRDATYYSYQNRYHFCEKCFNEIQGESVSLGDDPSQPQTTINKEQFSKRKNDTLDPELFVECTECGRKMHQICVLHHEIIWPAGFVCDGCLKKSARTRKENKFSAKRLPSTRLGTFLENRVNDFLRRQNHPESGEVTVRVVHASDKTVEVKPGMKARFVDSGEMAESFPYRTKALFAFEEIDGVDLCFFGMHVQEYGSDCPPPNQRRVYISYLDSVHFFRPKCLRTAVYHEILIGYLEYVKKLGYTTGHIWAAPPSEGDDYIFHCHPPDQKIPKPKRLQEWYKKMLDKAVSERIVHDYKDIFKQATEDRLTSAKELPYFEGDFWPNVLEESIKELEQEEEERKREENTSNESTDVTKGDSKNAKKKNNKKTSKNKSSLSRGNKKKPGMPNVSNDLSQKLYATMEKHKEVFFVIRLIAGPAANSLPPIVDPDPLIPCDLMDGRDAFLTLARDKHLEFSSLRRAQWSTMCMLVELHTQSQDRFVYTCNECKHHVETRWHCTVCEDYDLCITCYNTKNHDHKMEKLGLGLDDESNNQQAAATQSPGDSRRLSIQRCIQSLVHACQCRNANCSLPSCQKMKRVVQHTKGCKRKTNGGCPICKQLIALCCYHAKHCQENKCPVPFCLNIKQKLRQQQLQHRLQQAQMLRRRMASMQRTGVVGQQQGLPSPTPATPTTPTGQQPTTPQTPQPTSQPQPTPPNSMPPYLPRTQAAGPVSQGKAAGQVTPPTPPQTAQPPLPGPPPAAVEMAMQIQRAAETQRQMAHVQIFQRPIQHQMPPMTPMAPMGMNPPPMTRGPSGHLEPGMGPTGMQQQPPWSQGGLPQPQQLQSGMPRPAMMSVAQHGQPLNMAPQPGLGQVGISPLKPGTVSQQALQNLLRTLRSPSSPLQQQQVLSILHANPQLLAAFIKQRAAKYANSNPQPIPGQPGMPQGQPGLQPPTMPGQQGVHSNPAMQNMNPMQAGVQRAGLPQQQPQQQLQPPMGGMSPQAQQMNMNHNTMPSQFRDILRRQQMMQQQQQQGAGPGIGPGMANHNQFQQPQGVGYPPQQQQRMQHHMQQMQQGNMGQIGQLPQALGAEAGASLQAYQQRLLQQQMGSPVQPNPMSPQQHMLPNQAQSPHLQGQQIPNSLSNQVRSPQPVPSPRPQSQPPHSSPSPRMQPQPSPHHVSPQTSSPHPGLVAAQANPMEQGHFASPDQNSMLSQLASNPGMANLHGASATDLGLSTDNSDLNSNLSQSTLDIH
# [2] = test system: 3T3-L1; assay: Anti-adipogenic activity against mouse 3T3-L1 cells at 25 uM incubated for 8 days by Oil Red O staining based spectrophotometric analysis; format: functional, cell-based; conditions: time 8.0 day
# [3] = test system: 3T3-L1; assay: Anti-adipogenic activity against mouse 3T3-L1 cells assessed as downregulation of LEP mRNA expression at 25 uM measured after 7 days by qRT-PCR analysis; format: functional, cell-based; conditions: time 7.0 day
# [4] = test system: 3T3-L1; assay: Anti-adipogenic activity against mouse 3T3-L1 cells assessed as downregulation of FABP4 mRNA expression at 25 uM measured after 7 days by qRT-PCR analysis; format: functional, cell-based; conditions: time 7.0 day
# [5] = test system: 3T3-L1; assay: Anti-adipogenic activity against mouse 3T3-L1 cells assessed as downregulation of CEBPD mRNA expression at 25 uM measured after 7 days by qRT-PCR analysis; format: functional, cell-based; conditions: time 7.0 day
# [6] = test system: 3T3-L1; assay: Anti-adipogenic activity against mouse 3T3-L1 cells assessed as upregulation of TEAD4 mRNA expression at 25 uM measured after 7 days by qRT-PCR analysis; format: functional, cell-based; conditions: time 7.0 day
# [7] = test system: 3T3-L1; assay: Inhibition of H3K5 butyrylation in mouse 3T3-L1 cells by Immunoblotting analysis; format: functional, cell-based
# [8] = test system: Mus musculus; assay: Anti-obesity activity in C57BL6/J mouse model of high fat diet-induced obesity assessed as reduction in adipocyte hypertrophy at 50 mg/kg by hematoxylin and eosin staining based assay; format: functional, organism-based
# [9] = test system: Mus musculus; assay: Anti-obesity activity in C57BL6/J mouse model of high fat diet-induced obesity assessed as inhibition of H4K5 butyrylation level in liver at 50 mg/kg by DAPI staining based immunofluorescence microscopic analysis; format: functional, organism-based
# [10] = test system: Mus musculus; assay: Anti-obesity activity in db/db mouse assessed as daily food consumption […] at 50 mg/kg, po qd administered for 30 days and measured every week (reference value: 37.8 +/- 1.64 g); format: functional; conditions: time 30 day
# [11] = Mutagenicity in Salmonella typhimurium TA97a assessed as number of revertants measured per plate at 10 to 1000 incubated for 48 hrs in presence of rat liver S9 fraction by plate incorporation assay; format: toxicity; conditions: salmonella enterica subsp. enterica serovar typhimurium, s9, 48 h, dose 10-1000 µg
# [12] = Mutagenicity in Salmonella typhimurium TA100 assessed as number of revertants measured per plate at 10 to 1000 incubated for 48 hrs in presence of rat liver S9 fraction by plate incorporation assay; format: toxicity; conditions: salmonella enterica subsp. enterica serovar typhimurium, s9, 48 h, dose 10-1000 µg
# [13] = Mutagenicity in Salmonella typhimurium TA97a assessed as number of revertants measured per plate at 10 to 1000 incubated for 48 hrs in absence of rat liver S9 fraction by plate incorporation assay; format: toxicity; conditions: salmonella enterica subsp. enterica serovar typhimurium, s9, 48 h, dose 10-1000 µg
# [14] = Mutagenicity in Salmonella typhimurium TA100 assessed as number of revertants measured per plate at 10 to 1000 incubated for 48 hrs in absence of rat liver S9 fraction by plate incorporation assay; format: toxicity; conditions: salmonella enterica subsp. enterica serovar typhimurium, s9, 48 h, dose 10-1000 µg
# [15] = Toxicity in male Sprague-Dawley rat assessed as effect on body weight at 250 mg/kg, po administered as single dose measured on day 1 (reference value: 174.75 +/- 7.61 g); format: organism-based; conditions: in vivo, 24 h, time 1 day
# [16] = Toxicity in male Sprague-Dawley rat assessed as effect on body weight at 250 mg/kg, po administered as single dose measured on day 7 (reference value: 217.38 +/- 11.38 g); format: organism-based; conditions: in vivo, 168 h, time 7 day
# [17] = Toxicity in male Sprague-Dawley rat assessed as effect on body weight at 1000 mg/kg, po administered as single dose measured on day 7 (reference value: 217.38 +/- 11.38 g); format: organism-based; conditions: in vivo, 168 h, time 7 day
# [18] = Toxicity in male Sprague-Dawley rat assessed as effect on body weight at 1000 mg/kg, po administered as single dose measured on day 14 (Rvb =231.13 +/- 18.38 g); format: organism-based; conditions: in vivo, 336 h, time 14 day
# [19] = Toxicity in female Sprague-Dawley rat assessed as effect on body weight at 500 mg/kg, po administered as single dose measured on day 1 (Rvb =152.21 +/- 6.58 g); format: organism-based; conditions: in vivo, 24 h, time 1 day
# [20] = Toxicity in female Sprague-Dawley rat assessed as effect on body weight at 250 mg/kg, po administered as single dose measured on day 7 (Rvb =169.81 +/- 6.57 g); format: organism-based; conditions: in vivo, 168 h, time 7 day
# [21] = Toxicity in female Sprague-Dawley rat assessed as effect on body weight at 1000 mg/kg, po administered as single dose measured on day 7 (Rvb =169.81 +/- 6.57 g); format: organism-based; conditions: in vivo, 168 h, time 7 day
# [22] = Toxicity in female Sprague-Dawley rat assessed as effect on body weight at 250 mg/kg, po administered as single dose measured on day 14 (Rvb =171.5 +/- 6.65 g); format: organism-based; conditions: in vivo, 336 h, time 14 day
# [23] = Toxicity in male Sprague-Dawley rat assessed as average food intake at 500 mg/kg, po administered as single dose measured on day 1 (Rvb =20.38 g/day); format: organism-based; conditions: in vivo, 24 h, time 1 day
# [24] = Toxicity in male Sprague-Dawley rat assessed as average food intake at 250 mg/kg, po administered as single dose measured on day 14 (Rvb =21.24 g/day); format: organism-based; conditions: in vivo, 336 h, time 14 day
# [25] = Toxicity in male Sprague-Dawley rat assessed as average food intake at 500 mg/kg, po administered as single dose measured on day 14 (Rvb =21.24 g/day); format: organism-based; conditions: in vivo, 336 h, time 14 day
# [26] = Toxicity in male Sprague-Dawley rat assessed as average food intake at 1000 mg/kg, po administered as single dose measured on day 14 (Rvb =21.24 g/day); format: organism-based; conditions: in vivo, 336 h, time 14 day
# [27] = Toxicity in female Sprague-Dawley rat assessed as average food intake at 500 mg/kg, po administered as single dose measured on day 1 (Rvb =17.84 g/day); format: organism-based; conditions: in vivo, 24 h, time 1 day
# [28] = Toxicity in male Sprague-Dawley rat assessed as average water intake measured per day at 250 mg/kg, po administered as single dose measured on day 1 (Rvb =32 ml/day); format: organism-based; conditions: in vivo, 24 h, time 1 day
# [29] = Toxicity in male Sprague-Dawley rat assessed as average water intake measured per day at 1000 mg/kg, po administered as single dose measured on day 1 (Rvb =32 ml/day); format: organism-based; conditions: in vivo, 24 h, time 1 day
# [30] = Toxicity in male Sprague-Dawley rat assessed as average water intake measured per day at 1000 mg/kg, po administered as single dose measured on day 14 (Rvb =34 ml/day); format: organism-based; conditions: in vivo, 336 h, time 14 day
# [31] = Toxicity in female Sprague-Dawley rat assessed as average water intake measured per day at 250 mg/kg, po administered as single dose measured on day 7 (Rvb =21 ml/day); format: organism-based; conditions: in vivo, 168 h, time 7 day
# [32] = Toxicity in female Sprague-Dawley rat assessed as average water intake measured per day at 250 mg/kg, po administered as single dose measured on day 14 (Rvb =26 ml/day); format: organism-based; conditions: in vivo, 336 h, time 14 day
# [33] = Toxicity in female Sprague-Dawley rat assessed as average water intake measured per day at 1000 mg/kg, po administered as single dose measured on day 14 (Rvb =26 ml/day); format: organism-based; conditions: in vivo, 336 h, time 14 day
smiles,measurement,setting,value
COc1ccc(C(=O)C2=C3OC(C)(C)[C@@H](CC=C(C)C)C[C@@]34C[C@@H](CC=C(C)C)C(C)(C)[C@](CC=C(C)C)(C2=O)C4=O)cc1OC,inhibition,[1],Active
same,Activity,[2],Active
same,Activity,[3],Active
same,Activity,[4],Active
same,Activity,[5],Active
same,Activity,[6],Active
same,inhibition,[7],Active
same,Activity,[8],Active
same,Activity,[9],Active
same,Activity,[10],34 g
same,Activity,[11],Non-Toxic
same,Activity,[12],Non-Toxic
same,Activity,[13],Non-Toxic
same,Activity,[14],Non-Toxic
same,Activity,[15],171.94 g
same,Activity,[16],216.62 g
same,Activity,[17],217.65 g
same,Activity,[18],226.19 g
same,Activity,[19],153.32 g
same,Activity,[20],174.54 g
same,Activity,[21],178.58 g
same,Activity,[22],176.35 g
same,Activity,[23],20.99 g/day
same,Activity,[24],22.62 g/day
same,Activity,[25],23.29 g/day
same,Activity,[26],19.95 g/day
same,Activity,[27],18.22 g/day
same,Activity,[28],32 mL
same,Activity,[29],34 mL
same,Activity,[30],38 mL
same,Activity,[31],21 mL
same,Activity,[32],24 mL
same,Activity,[33],32 mL
